From patent US10183914B2 (BAYER CROPSCIENCE AKTIENGESELLSCHAFT, priority 2014, dated 2019)

Legend:
Assay type in all cases: in vivo
[1] = system: Triticum aestivum (spring); assay: Pre-emergence herbicidal effect and crop plant compatibility; details: 3 weeks
In short: (§1)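 Application to covering soil post-sowing: WP or EC, 600–800 L/ha, 0.2% wetting agent. Readout: visual % efficacy after 3 weeks, greenhouse, untreated plants as 0%.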

[2] = system: Zea mays; assay: as above; details: 80 g/ha, 3 weeks
In short: as §1

[3] = system: Alopecurus myosuroides; assay: Pre-emergence herbicidal effect; details: 3 weeks
In short: as §1

[4] = system: Amaranthus retroflexus; assay: Pre-emergence herbicidal effect; details: 3 weeks
In short: as §1

[5] = system: Avena fatua; assay: Pre-emergence herbicidal effect; details: 320 g/ha, 3 weeks
In short: as §1

[6] = system: Cyperus esculentus; assay: Pre-emergence herbicidal effect; details: 3 weeks
In short: as §1

[7] = system: Echinochloa crus-galli; assay: Pre-emergence herbicidal effect; details: 3 weeks
In short: as §1

[8] = system: Lolium multiflorum; assay: Pre-emergence herbicidal effect; details: 3 weeks
In short: as §1

[9] = system: Matricaria inodora; assay: Pre-emergence herbicidal effect; details: 3 weeks
In short: as §1

[10] = system: Polygonum convolvulus; assay: Pre-emergence herbicidal effect; details: 3 weeks
In short: as §1

[11] = system: Setaria viridis; assay: Pre-emergence herbicidal effect; details: 3 weeks
In short: as §1

[12] = system: Stellaria media; assay: Pre-emergence herbicidal effect; details: 3 weeks
In short: as §1

[13] = system: Veronica persica; assay: Pre-emergence herbicidal effect; details: 3 weeks
In short: as §1

[14] = system: Viola tricolor; assay: Pre-emergence herbicidal effect; details: 3 weeks
In short: as §1

[15] = system: Oryza sativa; assay: Post-emergence herbicidal effect and crop plant compatibility; details: visual scoring after about 3 weeks
In short: (§2)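 Scoring: visual, percent, about 3 weeks post-treatment, untreated plants as 0% reference and dead plants as 100%. Treatment: spray of WP/EC formulation (600 to 800 L/ha water, 0.2% wetting agent) on one-leaf-stage plants grown in sandy loam under greenhouse conditions.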

[16] = system: Triticum aestivum (spring); assay: as above; details: visual scoring after about 3 weeks
In short: as §2

[17] = system: Zea mays; assay: as above; details: 80 g/ha, visual scoring after about 3 weeks
In short: as §2

[18] = system: Alopecurus myosuroides; assay: Post-emergence herbicidal effect; details: 320 g/ha, visual scoring after about 3 weeks
Experimental: (§3) Seeds of monocotyledonous and dicotyledonous weed and crop plants are laid out in sandy loam in wood-fiber pots, covered with soil and cultivated in a greenhouse under good growth conditions. 2 to 3 weeks after sowing, the test plants are treated at the one-leaf stage. The compounds of the invention, formulated in the form of wettable powders (WP) or as emulsion concentrates (EC), are then sprayed onto the green parts of the plants as aqueous suspension or emulsion at a water application rate equating to 600 to 800 L/ha with addition of 0.2% wetting agent. After the trial plants have been left to stand in a greenhouse under optimal growth conditions for about 3 weeks, the efficacy of the formulations is scored visually in comparison to untreated controls (herbicidal action in percent (%): 100% efficacy=the plants have died, 0% efficacy=like control plants).

[19] = system: Echinochloa crus-galli; assay: Post-emergence herbicidal effect; details: visual scoring after about 3 weeks
Experimental: as §3

[20] = system: Ipomoea purpurea; assay: Post-emergence herbicidal effect; details: 320 g/ha (dose by row order of upper half), scoring after about 3 weeks
Experimental: as §3

[21] = system: Setaria viridis; assay: Post-emergence herbicidal effect; details: 320 g/ha (dose by row order of upper half), scoring after about 3 weeks
Experimental: as §3

[22] = system: Oryza sativa; assay: Pre-emergence herbicidal effect and crop plant compatibility; details: 80 g/ha, 3 weeks
In short: as §1

[23] = system: Avena fatua; assay: Post-emergence herbicidal effect; details: 320 g/ha, visual scoring after about 3 weeks
Experimental: as §3

[24] = system: Lolium multiflorum; assay: Post-emergence herbicidal effect; details: 320 g/ha, visual scoring after about 3 weeks
Experimental: as §3

With `O=C1CCCc2nc(N[C@@H]3CCCc4c(F)cccc43)ncc21` [2.13] the “TRZAS herbicidal activity in percent” value ([1]; 80 g/ha) was 0%, the “TRZAS herbicidal activity in percent” value ([1]; 320 g/ha) was 10% and the “ZEAMX herbicidal activity in percent” value [2] was 0%. The “ALOMY herbicidal activity in percent” value ([3]; 320 g/ha) was 100%, the “AMARE herbicidal activity in percent” value ([4]; 80 g/ha) was 100% and the “AMARE herbicidal activity in percent” value ([4]; 320 g/ha) was 100%. The “AVEFA herbicidal activity in percent” value [5] was 90%, the “CYPES herbicidal activity in percent” value ([6]; 80 g/ha) was 100% and the “CYPES herbicidal activity in percent” value ([6]; 320 g/ha) was 100%. The “ECHCG herbicidal activity in percent” value ([7]; 80 g/ha) was 100%, the “ECHCG herbicidal activity in percent” value ([7]; 320 g/ha) was 100% and the “LOLMU herbicidal activity in percent” value ([8]; 320 g/ha) was 100%. The “MATIN herbicidal activity in percent” value ([9]; 80 g/ha) was 100%, the “MATIN herbicidal activity in percent” value ([9]; 320 g/ha) was 100% and the “POLCO herbicidal activity in percent” value ([10]; 80 g/ha) was 100%. The “POLCO herbicidal activity in percent” value ([10]; 320 g/ha) was 100%, the “SETVI herbicidal activity in percent” value ([11]; 80 g/ha) was 100% and the “STEME herbicidal activity in percent” value ([12]; 80 g/ha) was 100%. For the same molecule, the “STEME herbicidal activity in percent” value ([12]; 320 g/ha) was 100%, the “VERPE herbicidal activity in percent” value ([13]; 80 g/ha) was 100% and the “VERPE herbicidal activity in percent” value ([13]; 320 g/ha) was 100%. The “VIOTR herbicidal activity in percent” value ([14]; 80 g/ha) was 100%, the “VIOTR herbicidal activity in percent” value ([14]; 320 g/ha) was 100% and the “post-emergence efficacy ORYSA” value ([15]; 80 g/ha) was 0%. The “post-emergence efficacy ORYSA” value ([15]; 320 g/ha) was 0%, the “post-emergence efficacy TRZAS” value ([16]; 80 g/ha) was 10% and the “post-emergence efficacy TRZAS” value ([16]; 320 g/ha) was 20%. For the same molecule, the “post-emergence efficacy ZEAMX” value [17] was 10%, the “post-emergence efficacy ALOMY” value [18] was 90% and the “post-emergence efficacy ECHCG” value ([19]; 80 g/ha) was 90%. The “post-emergence efficacy ECHCG” value ([19]; 320 g/ha) was 100%, the “post-emergence efficacy PHBPU” value [20] was 100% and the “post-emergence efficacy SETVI” value [21] was 100%.
For `O=C1CCCc2nc(N[C@@H]3CCCc4ccccc43)ncc21` [2.23], the “ORYSA herbicidal activity in percent” value [22] was 5%, the “TRZAS herbicidal activity in percent” value ([1]; 80 g/ha) was 0% and the “ZEAMX herbicidal activity in percent” value [2] was 0%. The “ALOMY herbicidal activity in percent” value ([3]; 80 g/ha) was 80%, the “ALOMY herbicidal activity in percent” value ([3]; 320 g/ha) was 100% and the “AMARE herbicidal activity in percent” value ([4]; 80 g/ha) was 100%. The “AMARE herbicidal activity in percent” value ([4]; 320 g/ha) was 100%, the “AVEFA herbicidal activity in percent” value [5] was 90% and the “CYPES herbicidal activity in percent” value ([6]; 320 g/ha) was 90%. The “ECHCG herbicidal activity in percent” value ([7]; 80 g/ha) was 80%, the “ECHCG herbicidal activity in percent” value ([7]; 320 g/ha) was 100% and the “LOLMU herbicidal activity in percent” value ([8]; 80 g/ha) was 80%. The “LOLMU herbicidal activity in percent” value ([8]; 320 g/ha) was 100%, the “MATIN herbicidal activity in percent” value ([9]; 80 g/ha) was 100% and the “MATIN herbicidal activity in percent” value ([9]; 320 g/ha) was 100%. The “POLCO herbicidal activity in percent” value ([10]; 80 g/ha) was 100%, the “POLCO herbicidal activity in percent” value ([10]; 320 g/ha) was 100% and the “SETVI herbicidal activity in percent” value ([11]; 80 g/ha) was 100%. For the same molecule, the “SETVI herbicidal activity in percent” value ([11]; 320 g/ha) was 100%, the “STEME herbicidal activity in percent” value ([12]; 80 g/ha) was 100% and the “STEME herbicidal activity in percent” value ([12]; 320 g/ha) was 100%. The “VERPE herbicidal activity in percent” value ([13]; 80 g/ha) was 100%, the “VERPE herbicidal activity in percent” value ([13]; 320 g/ha) was 100% and the “VIOTR herbicidal activity in percent” value ([14]; 80 g/ha) was 100%. For the same molecule, the “VIOTR herbicidal activity in percent” value ([14]; 320 g/ha) was 100%, the “post-emergence efficacy ORYSA” value ([15]; 80 g/ha) was 20% and the “post-emergence efficacy ORYSA” value ([15]; 320 g/ha) was 20%. For the same molecule, the “post-emergence efficacy TRZAS” value ([16]; 80 g/ha) was 0%, the “post-emergence efficacy TRZAS” value ([16]; 320 g/ha) was 0% and the “post-emergence efficacy ZEAMX” value [17] was 0%. For the same molecule, the “post-emergence efficacy AVEFA” value [23] was 100%, the “post-emergence efficacy ECHCG” value ([19]; 320 g/ha) was 90% and the “post-emergence efficacy PHBPU” value [20] was 80%. For the same molecule, the “post-emergence efficacy LOLMU” value [24] was 100%.
